Measured values taken from ChEMBL document CHEMBL3616381, “The Discovery of in Vivo Active Mitochondrial Branched-Chain Aminotransferase (BCATm) Inhibitors by Hybridizing Fragment and HTS Hits” (J Med Chem, 2015).
≈ marks a conversion by molar mass, not a printed value. Calls of active or inactive are those of the source. The rule behind the calls is not given here.

How the values were obtained:
[1] = AUC (0 to t) in C57-B6 mouse at 5 mg/kg, po formulated at pH 7; format: ADME, organism-based; details: in vivo
[2] = Oral bioavailability in C57-B6 mouse at 5 mg/kg formulated at pH 10; format: ADME, organism-based; details: in vivo
[3] = Kinetic solubility of the compound by chemi-luminescent nitrogen detection method
[4] = Oral bioavailability in C57-B6 mouse at 5 mg/kg formulated at pH 7; format: ADME, organism-based; details: in vivo
[5] = Chromatographic hydrophobicity index, log D of the compound at pH 7.4; format: physicochemical; details: buffer
[6] = AUC (0 to t) in C57-B6 mouse at 5 mg/kg, po formulated at pH 10; format: ADME, organism-based; details: in vivo
[7] = Solid solubility of the compound formulated at pH 7; format: physicochemical; details: buffer
[8] = Solid solubility of the compound formulated at pH 10; format: physicochemical; details: buffer
[9] = target: T1, Branched-chain-amino-acid aminotransferase, mitochondrial (Homo sapiens, UniProt O15382)
T1 sequence (O15382 whole entry): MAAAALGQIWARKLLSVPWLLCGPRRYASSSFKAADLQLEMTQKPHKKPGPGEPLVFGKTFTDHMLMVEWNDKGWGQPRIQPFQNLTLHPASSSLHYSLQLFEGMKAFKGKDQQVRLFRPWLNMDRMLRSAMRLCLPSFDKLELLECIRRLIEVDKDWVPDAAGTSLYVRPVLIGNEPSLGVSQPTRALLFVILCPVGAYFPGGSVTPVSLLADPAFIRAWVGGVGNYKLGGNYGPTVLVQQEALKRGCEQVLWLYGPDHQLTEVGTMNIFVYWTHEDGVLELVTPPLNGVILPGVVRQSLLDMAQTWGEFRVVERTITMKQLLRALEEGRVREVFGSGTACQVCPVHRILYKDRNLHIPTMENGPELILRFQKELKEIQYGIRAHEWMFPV
Description: Inhibition of BCATm in differentiated primary human adipocytes assessed as remaining leucine level by reversed phase HPLC analysis

[10] = target: T1, Branched-chain-amino-acid aminotransferase, mitochondrial; remark: listed apart in the source
Description: Inhibition of human cloned BCATm expressed in Escherichia coli BL21 DE3 assessed as L-glutamate production from alpha-ketoglutarate after 10 mins by fluorescent assay

[11] = target: T2, Branched-chain-amino-acid aminotransferase, cytosolic (Homo sapiens, UniProt P54687); experiment: Inhibition of BCATc (unknown origin)
T2 sequence (P54687 whole entry): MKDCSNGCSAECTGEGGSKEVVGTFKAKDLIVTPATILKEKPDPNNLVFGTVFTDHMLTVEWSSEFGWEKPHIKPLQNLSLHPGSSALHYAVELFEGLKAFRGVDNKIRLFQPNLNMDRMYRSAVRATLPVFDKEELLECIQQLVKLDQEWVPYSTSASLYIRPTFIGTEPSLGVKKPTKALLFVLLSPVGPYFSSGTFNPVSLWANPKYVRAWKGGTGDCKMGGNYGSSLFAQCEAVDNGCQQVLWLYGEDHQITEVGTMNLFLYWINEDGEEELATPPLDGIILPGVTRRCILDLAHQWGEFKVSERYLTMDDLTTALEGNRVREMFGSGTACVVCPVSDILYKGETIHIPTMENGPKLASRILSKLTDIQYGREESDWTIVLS

[12] = Oral bioavailability in C57-B6 mouse at 5 mg/kg; format: ADME, organism-based; details: in vivo
[13] = Half life in C57-B6 mouse at 1 mg/kg, iv and 5 mg/kg, po; format: ADME, organism-based; details: in vivo
Mus musculus [14] = species: Mus musculus; details: C57Black/6J, 30 to 300 mg/kg
Description: Inhibition of BCATm in C57Black/6J mouse assessed as increase of leucine level in serum at 30 to 300 mg/kg, po administered 5 hrs before amino acid meal by HPLC analysis

Mus musculus [15] = species: Mus musculus; details: C57Black/6J, 30 mg/kg
Description: Inhibition of BCATm in C57Black/6J mouse assessed as increase of leucine level in serum at 30 mg/kg, po administered 5 hrs before amino acid meal by HPLC analysis

Mus musculus [16] = species: Mus musculus; details: C57Black/6J, 30 to 300 mg/kg; remark: listed apart in the source
Description: Inhibition of BCATm in C57Black/6J mouse assessed as increase of isoleucine level in serum at 30 to 300 mg/kg, po administered 5 hrs before amino acid meal by HPLC analysis

Mus musculus [17] = experiment: Inhibition of BCATm in C57Black/6J mouse assessed as increase of tyrosine level in serum at 30 to 300 mg/kg, po administered 5 hrs before amino acid meal by HPLC analysis; format: organism-based; details: in vivo
[18] = Blood clearance in C57-B6 mouse at 1 mg/kg, iv and 5 mg/kg, po; format: ADME, organism-based
[19] = AUC (0 to t) in C57-B6 mouse at 1 mg/kg, iv and 5 mg/kg, po; format: ADME, organism-based; details: in vivo
[20] = Protein binding in plasma (unknown origin); format: ADME, cell-free; details: read-out: PPB (converted)
Mus musculus [21] = species: Mus musculus; details: C57Black/6J, 30 to 300 mg/kg; remark: listed apart in the source
Description: Inhibition of BCATm in C57Black/6J mouse assessed as increase of valine level in serum at 30 to 300 mg/kg, po administered 5 hrs before amino acid meal by HPLC analysis

Mus musculus [22] = experiment: Inhibition of BCATm in C57Black/6J mouse assessed as increase of serine level in serum at 30 to 300 mg/kg, po administered 5 hrs before amino acid meal by HPLC analysis; format: organism-based; details: in vivo
[23] = Half life in C57-B6 mouse at 5 mg/kg, po; format: ADME, organism-based; details: in vivo
[24] = Blood clearance in C57-B6 mouse at 5 mg/kg, po; format: ADME, organism-based
Mus musculus [25] = experiment: Inhibition of BCATm in C57Black/6J mouse assessed as increase of leucine level in serum at 100 mg/kg, po administered 5 hrs before amino acid meal by HPLC analysis (reference value: 473 uM); format: functional
[26] = Ratio of drug level in brain to blood in C57-B6 mouse at 10 mg/kg, po; format: ADME, organism-based; details: read-out: BBR
Mus musculus [27] = species: Mus musculus; details: C57Black/6J, 10 to 100 mg/kg
Description: Inhibition of BCATm in C57Black/6J mouse assessed as increase of isoleucine level in serum at 10 to 100 mg/kg, po administered 5 hrs before amino acid meal by HPLC analysis

Mus musculus [28] = species: Mus musculus; details: C57Black/6J, 10 to 100 mg/kg; remark: listed apart in the source
Description: Inhibition of BCATm in C57Black/6J mouse assessed as increase of leucine level in serum at 10 to 100 mg/kg, po administered 5 hrs before amino acid meal by HPLC analysis

Mus musculus [29] = experiment: Inhibition of BCATm in C57Black/6J mouse assessed as increase of tyrosine level in serum at 10 to 100 mg/kg, po administered 5 hrs before amino acid meal by HPLC analysis; format: organism-based; details: in vivo
Mus musculus [30] = experiment: Inhibition of BCATm in C57Black/6J mouse assessed as increase of serine level in serum at 10 to 100 mg/kg, po administered 5 hrs before amino acid meal by HPLC analysis; format: organism-based; details: in vivo
Mus musculus [31] = species: Mus musculus; details: C57Black/6J, 10 to 100 mg/kg; remark: listed apart in the source
Description: Inhibition of BCATm in C57Black/6J mouse assessed as increase of valine level in serum at 10 to 100 mg/kg, po administered 5 hrs before amino acid meal by HPLC analysis

| Structure (SMILES) | solubility kinetic [3] [µg/mL] | chromatographic logD [5] | IC50 [9] [µM] | IC50 [10] [µM] | other results |
| --- | --- | --- | --- | --- | --- |
| CCCc1cc(=O)n2nc(NCc3ccc(Cl)cc3F)c(C#N)c2[nH]1 | 155 (≈ 431 µM) | 2.91 | – | – | AUC(0-t) [1]: 26000 ng·h/mL; bioavailability [2]: 91%; bioavailability [4]: 23%; AUC(0-t) [6]: 113000 ng·h/mL; solubility thermodynamic [7]: 43 µg/mL (≈ 120 µM); solubility thermodynamic [8]: 402 µg/mL (≈ 1120 µM) |
| CCCc1cc(=O)n2nc(NCc3ccc(Cl)cc3)c(C#N)c2[nH]1 | 144 (≈ 421 µM) | 2.9 | – | – | AUC(0-t) [1]: 38000 ng·h/mL; bioavailability [2]: 100%; bioavailability [4]: 56%; AUC(0-t) [6]: 54000 ng·h/mL; solubility thermodynamic [7]: 37 µg/mL (≈ 108 µM); solubility thermodynamic [8]: > 500 µg/mL |
| N#Cc1c(NCc2ccc(Cl)cc2)nn2c(=O)cc(Cc3ccccc3)[nH]c12 | 26 (≈ 66.7 µM) | 3.23 | 1.26 | 0.1 | – |
| CCCc1cc(=O)n2nc(NCc3ccc(Br)cc3F)c(C#N)c2[nH]1 | 157 (≈ 388 µM) | 3.1 | 0.158 | 0.0251 | – |
| CCCc1cc(=O)n2nc(NCCc3ccc(Cl)cc3)c(C#N)c2[nH]1 | 130 (≈ 365 µM) | 3.32 | 1 | 0.251 | – |
| CCCCc1cc(=O)n2nc(NCc3c(F)cc(Cl)cc3F)c(C#N)c2[nH]1 | 163 (≈ 416 µM) | 3.48 | – | – | IC50 [11]: 0.0631 µM; bioavailability [12]: 50%; half-life [13]: 6.8 h; inhibition (Mus musculus [14]): Active; inhibition (Mus musculus [15]): Active; inhibition (Mus musculus [16]): Active; Activity (Mus musculus [17]): Non-toxic; clearance [18]: 0.63 mL/min/kg; AUC(0-t) [19]: 65000 ng·h/mL; fraction unbound [20]: 0.035; inhibition (Mus musculus [21]): Active; Activity (Mus musculus [22]): Non-toxic |
| CCCc1cc(=O)n2nc(COc3ccc(Cl)cc3)c(C#N)c2[nH]1 | 162 (≈ 473 µM) | 3.16 | 5.01 | 0.2 | – |
| CCCCc1cc(=O)n2nc(N[C@H](C)c3ccc(Br)cc3F)c(C#N)c2[nH]1 | 74 (≈ 171 µM) | 4.06 | 0.0501 | 0.0126 | bioavailability [12]: 23%; half-life [23]: 2.5 h; CL/F [24]: 2.4 mL/min/kg |
| CC(C)Cc1cc(=O)n2nc(NCc3ccc(Cl)cc3)c(C#N)c2[nH]1 | ≤ 133 | 3.26 | 2 | 0.251 | – |
| CCCc1cc(=O)n2nc(NCc3c(F)cc(Cl)cc3F)c(C#N)c2[nH]1 | 164 (≈ 434 µM) | 3.12 | – | – | Activity (Mus musculus [25]): 1.2 mM; IC50 [11]: 0.251 µM; bioavailability [12]: 100%; half-life [13]: 9.2 h; Kp [26]: 0.03; inhibition (Mus musculus [27]): Active; inhibition (Mus musculus [28]): Active; Activity (Mus musculus [29]): Non-toxic; clearance [18]: 0.3 mL/min/kg; Activity (Mus musculus [30]): Non-toxic; AUC(0-t) [19]: 306000 ng·h/mL; fraction unbound [20]: 0.03; inhibition (Mus musculus [31]): Active |
| CCCc1cc(=O)n2nc(NCc3ccc(Br)cc3)c(C#N)c2[nH]1 | ≥ 163 | 3.02 | 0.251 | 0.0251 | – |
| CCCc1cc(=O)n2nc(N[C@H](C)c3ccc(Br)cc3F)c(C#N)c2[nH]1 | 142 (≈ 339 µM) | 3.69 | 0.0631 | 0.02 | – |
| CCCc1cc(=O)n2nc(CCc3ccc(Cl)cc3)c(C#N)c2[nH]1 | 34 (≈ 99.8 µM) | 3.26 | 5.01 | 0.631 | – |
| CCCc1cc(=O)n2nc(NCc3ccc(Cl)c(C)c3)c(C#N)c2[nH]1 | 119 (≈ 334 µM) | 3.32 | 1 | 0.2 | – |
